Measurements taken from PubChem BioAssay (NCI).
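Exposure lasted 48 hours, with cells grown in 96-well plates and compounds tested at five concentrations. At the TGI there is no net growth.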

How the values were obtained:
Experiment in all cases: NCI-60 cell line screen, 48 h
HL-60(TB) leukemia = test system: HL-60(TB) leukemia
IGROV1 ovarian = test system: IGROV1 ovarian
SK-MEL-5 melanoma = test system: SK-MEL-5 melanoma
KM12 colon = test system: KM12 colon
KM20L2 colon = test system: KM20L2 colon
SNB-19 CNS = test system: SNB-19 CNS
SN12C renal = test system: SN12C renal
NCI-H226 lung = test system: NCI-H226 lung
NCI-H522 lung = test system: NCI-H522 lung
SF-268 CNS = test system: SF-268 CNS
HOP-92 NSCLC = test system: HOP-92 NSCLC
SK-MEL-28 melanoma = test system: SK-MEL-28 melanoma
RXF 393 renal = test system: RXF 393 renal
OVCAR-5 ovarian = test system: OVCAR-5 ovarian
CCRF-CEM leukemia = test system: CCRF-CEM leukemia
COLO 205 colon = test system: COLO 205 colon
LXFL 529 NSCLC = test system: LXFL 529 NSCLC
RPMI-8226 leukemia = test system: RPMI-8226 leukemia
M19-MEL melanoma = test system: M19-MEL melanoma
TK-10 renal = test system: TK-10 renal
SK-OV-3 ovarian = test system: SK-OV-3 ovarian
SF-295 CNS = test system: SF-295 CNS
HOP-18 NSCLC = test system: HOP-18 NSCLC
MOLT-4 leukemia = test system: MOLT-4 leukemia
K-562 leukemia = test system: K-562 leukemia
MALME-3M melanoma = test system: MALME-3M melanoma
DLD-1 colon = test system: DLD-1 colon
NCI-H23 lung = test system: NCI-H23 lung
HCT-15 colon = test system: HCT-15 colon
XF 498 CNS = test system: XF 498 CNS
UACC-257 melanoma = test system: UACC-257 melanoma
OVCAR-8 ovarian = test system: OVCAR-8 ovarian
SW-620 colon = test system: SW-620 colon
OVCAR-3 ovarian = test system: OVCAR-3 ovarian
UO-31 renal = test system: UO-31 renal
UACC-62 melanoma = test system: UACC-62 melanoma
U251 CNS = test system: U251 CNS
EKVX NSCLC = test system: EKVX NSCLC
HT29 colon = test system: HT29 colon
A549 NSCLC = test system: A549 NSCLC
SNB-78 CNS = test system: SNB-78 CNS
HCT-116 colon = test system: HCT-116 colon
ACHN renal = test system: ACHN renal
RXF-631 renal = test system: RXF-631 renal
786-0 renal = test system: 786-0 renal
LOX IMVI melanoma = test system: LOX IMVI melanoma
SR leukemia = test system: SR leukemia
HCC-2998 colon = test system: HCC-2998 colon
SNB-75 CNS = test system: SNB-75 CNS
DMS 273 small cell lung = test system: DMS 273 small cell lung
SF-539 CNS = test system: SF-539 CNS
M14 melanoma = test system: M14 melanoma
SK-MEL-2 melanoma = test system: SK-MEL-2 melanoma
NCI-H460 lung = test system: NCI-H460 lung
OVCAR-4 ovarian = test system: OVCAR-4 ovarian
CAKI-1 renal = test system: CAKI-1 renal
A498 renal = test system: A498 renal

Measured: TGI

COc1ccc2c(C(=O)O)cc3cc(OC)c(OC)cc3c2c1
not listed: OVCAR-4 ovarian | CAKI-1 renal | A498 renal
> 100 µM: all other assays above

N/N=C(\Cc1ccccc1)NN=C(N)N
not listed: KM20L2 colon | SNB-19 CNS | RXF 393 renal | OVCAR-3 ovarian | DMS 273 small cell lung
> 100 µM: all other assays above
